The target in assay [1] is T1, E. multilocularis DNA damage-inducible 1 protein (EmuDdi1) (Echinococcus multilocularis, UniProt A0A068Y9Y4).
T1 sequence (A0A068Y9Y4 1-390): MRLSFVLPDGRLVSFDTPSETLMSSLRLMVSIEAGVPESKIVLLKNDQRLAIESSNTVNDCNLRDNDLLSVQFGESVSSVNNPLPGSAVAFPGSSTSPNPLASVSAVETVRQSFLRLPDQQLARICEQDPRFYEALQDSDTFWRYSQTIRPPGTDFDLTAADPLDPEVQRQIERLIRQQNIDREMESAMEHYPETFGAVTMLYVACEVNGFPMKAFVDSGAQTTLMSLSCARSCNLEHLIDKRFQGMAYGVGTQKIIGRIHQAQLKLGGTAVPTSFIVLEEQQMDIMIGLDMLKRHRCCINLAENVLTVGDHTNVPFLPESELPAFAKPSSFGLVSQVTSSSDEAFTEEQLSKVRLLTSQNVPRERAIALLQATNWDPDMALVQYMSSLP
The experiment in a line: fluorogenic aspartyl protease assay. Format: biochemical.

Assay [2] deals with T1, E. multilocularis DNA damage-inducible 1 protein (EmuDdi1). The experiment in a line: fluorogenic aspartyl protease assay, single concentration. Format: biochemical. The following applies: read-out: % inhibition at 40 μM.

pIC50: −log10 of the molar value.

On to `Cc1c(O)cccc1C(=O)N[C@@H](CSc1ccccc1)[C@H](O)CN1C[C@H]2CCCC[C@H]2C[C@H]1C(=O)NC(C)(C)C` [NFV, nelfinavir], for which, in assay [1], the pIC50 (as a rule, the negative decadic logarithm of the IC50, by convention in mol/L) is 4.34.

On to `CC(C)(C)NC(=O)[C@@H]1C[C@@H]2CCCC[C@@H]2CN1C[C@@H](O)[C@H](Cc1ccccc1)NC(=O)[C@H](CC(N)=O)NC(=O)c1ccc2ccccc2n1` [SQV, saquinavir], for which the inhibition (usually how much of the control response was suppressed) at 40 µM in assay [2] was roughly 40%.

(Values after article PMC9294487 (eBioMedicine, 2022).)
